SMILES strings stand for the structures.

Data set [1] concerns interferon (IFN)-gamma released by SLE-PBMC. Nature of the data set: IFN-gamma release by pathogenic lupus cells. The settings on record: control, non-specific inflammatory stimulus. The class given is cell-based, human. The source says:
FIG. 32 is a bar graph depicting the amount of interferon (IFN)-gamma released by pathogenic lupus cells in the presence or absence of combinations of (1) activated Treg cells; (2) ruxolitinib; and/or (3) camptothecin. Rux=ruxolitinib. SLE-PBMC=peripheral blood mononuclear cells derived from subjects with systemic lupus erythematosus. D6=Day 6.

Data set [2] has as its system xenogeneic mouse graft versus host disease (GVHD) model. The settings on record: in vivo. As to the method: FIG. 33 depicts a schematic for treatment of a xenogeneic mouse graft versus host disease (GVHD) model with a ruxolitinib and activated Treg cells regimen. PBMC=peripheral blood mononuclear cells.
A xenogeneic mouse graft versus host disease (GVHD) model was treated with a ruxolitinib and activated CB Treg cells regimen, as depicted in FIG. 33. NSG mice underwent sublethal irradiation on day −1 followed by injection of 1×10^7 donor peripheral blood (PB) mononuclear cells (MNCs) on day 0. Oral ruxolitinib at 1 mg daily was fed continuously to the mice in the presence or absence of 1×10^7 CB Treg cells, tagged with CellTrace™ Violet dye (ThermoFisher), administered on days +4, +7, +11, +18. Mice were followed every other day for weight, GVHD score and survival. Serial blood draws were performed to analyze for cell compartment and cytokine assays.

For the compound `CC[C@@]1(O)C(=O)OCc2c1cc1n(c2=O)Cc2cc3ccccc3nc2-1` [Camptothecin], the “IFNγ secretion from CB Treg cells” value in data set [1] is listed as “does not increase IFNγ secretion”.

As to `N#CC[C@H](C1CCCC1)n1cc(-c2ncnc3[nH]ccc23)cn1` [ruxolitinib], the “CB Treg persistence” value in data set [2] is “improved CB Treg persistence”.

Values taken from US12472182B2, “Compositions comprising regulatory t cells and methods of making and using the same” (Cellenkos, Inc., priority 2019, dated 2025).
